{"source": "patent US20210386733A1", "about": "“LYSINE-SPECIFIC HISTONE DEMETHYLASE INHIBITORS FOR THE TREATMENT OF MYELOPROLIFERATIVE NEOPLASMS” (Imago Biosciences, Inc., priority 2019, published 2021)", "key": {"[1]": {"tested_on": "patients with high-risk MF", "assay": "Phase 1/2A clinical trial of Compound 1 in myelofibrosis (Example 1)", "type": "in vivo, human", "excerpt": "A multi-center, open-label study evaluating the safety, tolerability, steady-state pharmacokinetics and pharmacodynamics of Compound 1 administered orally once daily in patients with high-risk MF, including primary myelofibrosis (PMF), post-polycythemia vera myelofibrosis (PPV-MF), and post-essential thrombocythemia myelofibrosis (PET-MF) (collectively referred to as ‘MF’) was initiated as a Phase 1/2A study, and was expanded to a Phase 2b study.\nThe Phase 1/2A portion of the study assessed: the safety of the original starting dose, 0.25 mg/kg/d; an 85-day duration of treatment with a subsequent washout period of up to 28 days; and, pharmacokinetic and drug concentration measurements. […] With transition to a Phase 2b study, changes supported by the earlier pharmacokinetic and pharmacodynamic studies and safety assessments were implemented, including: an increased starting dose of 0.5 mg/kg/d with larger titration increments; a 168-day (24 week) duration of treatment, with continuous dosing via removal of the washout period; elimination of PK and drug concentration sampling; and, a reduced visit schedule.\nThis study was conducted at multiple sites. Up to 50 patients, eighteen years of age or older, with high-risk myelofibrosis were treated. The primary objectives included safety and tolerability, pharmacokinetics (PK; Phase 1/2A only) and spleen volume reduction (SVR). […] Key inclusion criteria included: high- or intermediate-2 risk myelofibrosis; per the Investigator's judgment have failed (refractory or resistant to, inadequately controlled by or intolerant of), or are not a candidate for, available approved therapy including ruxolitinib; platelet count≥100K/μL; and, circulating blasts ≤10%.\nIn the Phase 1/2a portion of the study, patients started at the presumed sub-therapeutic dose of 0.25 mg/kg/d. Dose-adjustments were made weekly (the lifespan of a human platelet) with dose-titration, either upward or downward, contingent on platelet values at the time of evaluation. Upward titrations were made in increments of 0.125 or 0.0625 mg/kg/d as shown below. Downward titrations were made in decrements of 50% of the current dose. […] The titration target platelet count expected to be associated with most efficacious therapeutic effect was ≥50,000 to <100,000/μL (50-100×10^9/L). The Phase 1/2a titration and re-challenge rules based on weekly evaluation of platelet counts are noted below in Table 1.\nAll but one patient had received one or more prior treatments including ruxolitinib. 48% had PMF, 33% PET-MF, 19% PPV-MF. The median patient age was 65 years (48-89) with 58% males. 48% were classified as high risk (IPSS), the remainder, intermediate risk-2. […] A substantial fraction of the patients had ≥3 mutations. Patients were treated daily for 12 weeks, in accordance with above starting dose and titration rules, followed by a washout period of up to 28 days. Starting platelet counts ranged from about 141 to about 1309 k/μL. Bone marrow biopsies and imaging studies of the abdomen were conducted prior to treatment and during the washout period after 12 weeks of dosing. Grading of myelofibrosis was performed centrally using the 2016 revised World Health Organization classification of myeloid neoplasia (Arber et al., 2016); image reading was also performed centrally. The Myeloproliferative Neoplasm Symptom Assessment Form (MPN-SAF) was self-administered at Baseline and weekly from Day 0 through the End of Study (EoS) Visit. Total symptom scores were derived from this tool. Patients for whom clinical benefit was demonstrable could resume treatment for additional 12-week cycles."}, "[2]": {"tested_on": "patients with MF", "assay": "Safety / adverse events in the clinical studies (31 subjects)", "type": "in vivo", "excerpt": "Safety. […] Four SAEs attributed to Compound 1 (all Grade 3), including painful splenomegaly, headache, nausea and vomiting, and heart failure. There were 139 AEs of all grades attributed to Compound 1. The most common AEs across the 31 subjects from both of the above studies were thrombocytopenia (11 subjects, 35%), anemia (3 subjects, 10%) and nausea (1, 3%). The most common grade 3/4 AEs attributed to Compound 1 were Anemia (6 subjects, 19%) and neutropenia (3 subjects, 10%).\nManagement of Study Toxicities. Adverse event intensity will be evaluated using the National Cancer Institute (NCI) Common Terminology Criteria for Adverse Events (CTCAE) version 4.03, published 14 Jun. 2010."}, "[3]": {"details": "13 patients with biopsies, Day 0 to Day 84 or EoT"}, "[4]": {"details": "of the 3 with Hb>10 g/dL at day 0, day 84"}, "[5]": {"details": "of the 6 transfusion-independent patients with Hb<10 g/dL"}, "[6]": {"details": "of the 9 transfusion-dependent patients, day 84"}}, "note": "Structures can show the parent of a compound that is named as a salt.", "data": [{"molecule": "CN1CCN(C(=O)[C@H](CCCN[C@@H]2C[C@H]2c2ccc(F)cc2)NC(=O)c2ccc(-n3ccnn3)cc2)CC1", "note": "[Compound 1, N-[(2S)-5-{[(1R, 2S)-2-(4-fluorophenyl)cyclopropyl]amino}-1-(4-methylpiperazin-1-yl)-1-oxopentan-2-yl]-4-(1H-1,2,3-triazol-1-yl)benzamide, bis-tosylate salt]", "values": [{"measurement": "patients whose bone marrow fibrosis progressed by 1 Grade", "setting": "[1]; [3]", "value": 23, "unit": "%"}, {"measurement": "patients with a stable bone marrow fibrosis score", "setting": "[1]; [3]", "value": 62, "unit": "%"}, {"measurement": "patients with bone marrow fibrosis improvement of ≥1 grade", "setting": "[1]; [3]", "value": 15, "unit": "%"}, {"measurement": "28 days expressed in half-lives of the drug", "setting": "[1]; at the doses used in this study", "value": "> 10", "unit": "half-lives"}, {"measurement": "spleen volume response (SVR) and total symptom score (TSS) compared with Best Available Treatment (BAT)", "setting": "[1]; day 0 to day 84, BAT as in PERSIST-2 trial, FIG. 3", "value": "outperformed the BAT"}, {"measurement": "effect on myelofibrosis symptoms", "setting": "[1]; evaluable patients N=14, preliminary analysis", "value": "profound effect"}, {"measurement": "range of total daily dose needed to achieve a platelet count in the target range", "setting": "[1]; excluding highest and lowest doses", "value": "53 to 90", "unit": "mg"}, {"measurement": "mean total daily dose needed to achieve a platelet count in the target range", "setting": "[1]; excluding highest and lowest doses (4 mg and 100 mg), target 50,000-75,000 platelets per microliter, S.D. 13.8", "value": 78.3, "unit": "mg"}, {"measurement": "mean therapeutic dose per body weight", "setting": "[1]; first sixteen patients, assuming an average weight of 75 kg", "value": 0.85, "unit": "mg/kg/day"}, {"measurement": "overall efficacy on spleen volumes and symptom scores", "setting": "[1]; heterogeneous population of MF patients with limited therapeutic options", "value": "effective in reducing spleen volumes and substantially improving symptom scores in a majority of patients"}, {"measurement": "improvements in symptom scores", "setting": "[1]; human, in vivo", "value": "generally dose-dependent and rapid"}, {"measurement": "levels of CCL3, IL-6, IL-10, IL-33, IL-28A, IFNβ, IFNα, IFNγ", "setting": "[1]; in the course of treatment", "value": "not elevated in any patient"}, {"measurement": "patients with improved Hb (increase of Hb>1 g/dL)", "setting": "[1]; [4]", "value": 1, "unit": "patients"}, {"measurement": "patients with worsened Hb (decrease of Hb>1 g/dL)", "setting": "[1]; [4]", "value": 2, "unit": "patients"}, {"measurement": "patients who remained stable (Hb)", "setting": "[1]; [5]", "value": 3, "unit": "patients"}, {"measurement": "patients who worsened (became transfusion dependent or Hb drop by >1 g/dL)", "setting": "[1]; [5]", "value": 2, "unit": "patients"}, {"measurement": "patients with improved Hb", "setting": "[1]; [5]", "value": 1, "unit": "patients"}, {"measurement": "patients who became transfusion-independent and had improved Hb of >1 g/dL", "setting": "[1]; of the 9 transfusion-dependent patients (Hb<10 g/dL), day 84", "value": 1, "unit": "patients"}, {"measurement": "patients who maintained stable transfusion frequency", "setting": "[1]; [6]", "value": 8, "unit": "patients"}, {"measurement": "patients with increased transfusion frequency", "setting": "[1]; [6]", "value": "one"}, {"measurement": "lymphocytes counts", "setting": "[1]; on treatment", "value": "unchanged"}, {"measurement": "monocyte counts", "setting": "[1]; on treatment", "value": "generally modestly elevated"}, {"measurement": "peripheral granulocyte counts", "setting": "[1]; on treatment", "value": "lower"}, {"measurement": "platelet counts", "setting": "[1]; on treatment", "value": "reduced platelet counts in all patients"}, {"measurement": "mean dose needed to achieve and safely maintain the target platelet count (therapeutic dose)", "setting": "[1]; re-analysis of first sixteen patients", "value": 63.8, "unit": "mg/day"}, {"measurement": "platelet counts after cessation of treatment", "setting": "[1]; reversibility of the anti-thrombopoietic effect", "value": "rebounded robustly"}, {"measurement": "percent of F-cells (fetal hemoglobin containing erythrocytes)", "setting": "[1]; six patients, FIG. 10", "value": "reduced the percent of F-cells"}, {"measurement": "patients with reduction in symptom score (MPN-10)", "setting": "[1]; week 12", "value": 79, "unit": "%"}, {"measurement": "patients with reduction in symptom score by ≥50%", "setting": "[1]; week 12", "value": 21, "unit": "%"}, {"measurement": "inflammatory cytokine S100A9", "setting": "[1]; week 12, FIG. 4", "value": "generally decreased"}, {"measurement": "inflammatory cytokine RANTES", "setting": "[1]; week 12, FIG. 5", "value": "generally decreased"}, {"measurement": "inflammatory cytokine IL-8", "setting": "[1]; week 12, FIG. 6", "value": "generally decreased"}, {"measurement": "circulating growth factor VEGF", "setting": "[1]; week 12, FIG. 7", "value": "generally decreased"}, {"measurement": "circulating growth factor PDGF-BB", "setting": "[1]; week 12, FIG. 8", "value": "generally decreased"}, {"measurement": "patients with a decrease in spleen volume", "setting": "[1]; week 12, evaluable N=14", "value": 50, "unit": "%"}, {"measurement": "patients with a decrease in spleen volume", "setting": "[1]; week 24", "value": 75, "unit": "%"}, {"measurement": "patients with a decrease in spleen volume by 35%", "setting": "[1]; week 24", "value": 12.5, "unit": "%"}, {"measurement": "patients with a decrease in symptom score", "setting": "[1]; week 24", "value": 89, "unit": "%"}, {"measurement": "patients with a decrease in symptom score by ≥50%", "setting": "[1]; week 24", "value": 44, "unit": "%"}, {"measurement": "patients with improved scores of fatigue", "setting": "[1]; within 14 days, at the lowest two doses", "value": "8 of the first 16 patients"}, {"measurement": "subjects with grade 3/4 Anemia attributed to Compound 1", "setting": "[2]; 31 subjects", "value": 19, "unit": "%"}, {"measurement": "subjects with grade 3/4 neutropenia attributed to Compound 1", "setting": "[2]; 31 subjects", "value": 10, "unit": "%"}, {"measurement": "subjects with anemia (most common AEs)", "setting": "[2]; 31 subjects from both studies", "value": 10, "unit": "%"}, {"measurement": "subjects with nausea (most common AEs)", "setting": "[2]; 31 subjects from both studies", "value": 3, "unit": "%"}, {"measurement": "subjects with thrombocytopenia (most common AEs)", "setting": "[2]; 31 subjects from both studies", "value": 35, "unit": "%"}, {"measurement": "tolerability", "setting": "[2]; MF patients", "value": "well tolerated"}, {"measurement": "SAEs attributed to Compound 1", "setting": "[2]; all Grade 3: painful splenomegaly, headache, nausea and vomiting, heart failure", "value": "Four"}, {"measurement": "AEs of all grades attributed to Compound 1", "setting": "[2]; human, in vivo", "value": 139}, {"measurement": "deaths or dose-limiting toxicities", "setting": "[2]; throughout the course of the study", "value": "no deaths or dose-limiting toxicities"}]}]}
